Here are results for 26 compounds from US7772246B2 (Pfizer Inc., priority 2007, dated 2010).

SMILES strings stand for the structures.

For the experiment, the target named is T1, b-Raf (Homo sapiens, UniProt P15056, V600E).
T1 construct: endogenous in cells; host or cells: A2058 human melanoma cells
T1 sequence (P15056 whole entry V600E): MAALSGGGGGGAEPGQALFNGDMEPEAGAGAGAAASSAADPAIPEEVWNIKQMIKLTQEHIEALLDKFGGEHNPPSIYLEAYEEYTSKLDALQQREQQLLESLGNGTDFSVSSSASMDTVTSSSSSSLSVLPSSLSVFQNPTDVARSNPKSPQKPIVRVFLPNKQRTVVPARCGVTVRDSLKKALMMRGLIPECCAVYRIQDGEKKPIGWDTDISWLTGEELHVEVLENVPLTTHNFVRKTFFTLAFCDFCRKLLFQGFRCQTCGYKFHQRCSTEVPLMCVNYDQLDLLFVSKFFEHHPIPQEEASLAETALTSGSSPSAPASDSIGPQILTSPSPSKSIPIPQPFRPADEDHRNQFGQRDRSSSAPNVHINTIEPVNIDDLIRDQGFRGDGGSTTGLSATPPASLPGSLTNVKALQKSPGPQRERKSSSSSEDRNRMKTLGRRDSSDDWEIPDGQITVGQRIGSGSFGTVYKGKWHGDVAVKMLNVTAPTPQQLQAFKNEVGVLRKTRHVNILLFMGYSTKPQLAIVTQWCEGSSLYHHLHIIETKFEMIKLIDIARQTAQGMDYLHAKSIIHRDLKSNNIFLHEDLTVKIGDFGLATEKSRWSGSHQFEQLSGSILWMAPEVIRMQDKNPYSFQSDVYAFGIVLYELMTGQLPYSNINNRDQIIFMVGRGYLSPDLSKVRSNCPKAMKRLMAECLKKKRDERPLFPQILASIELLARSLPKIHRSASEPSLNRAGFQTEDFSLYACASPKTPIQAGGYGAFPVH
Put plainly: Raf cellular assay (phospho-Mek1/2 ELISA in A2058 cells). The note with it: Table 3; human melanoma A2058 cells (b-Raf mutation), Mek1/2 Ser217/221 phosphorylation, 1 hour incubation; read-out: pMEK IC50. It is filed as cell-based. The procedure: Compounds of the present invention were evaluated for potency against b-Raf using a cellular assay as follows. The activity of Raf kinases in cells is determined by measuring the level of phosphorylation of Mek1/2 at serine 217/221, the site phosphorylated by Raf kinases in vivo. Mek1/2 Ser phosphorylation is measured using anti-phospho-Mek1/2 antibodies (Cell Signaling #9121) in an ELISA format.
Healthy growing human melanoma A2058 cells (harboring a b-Raf mutation) are used for the assay. A2058 cells are grown in 10% FBS DMEM medium. When the cells are near 85%+confluence, the cells are rinsed with PBS once and trypsinized with trypsin/EDTA for 3 minutes. The cells are resuspended in 10% FBS DMEM and are centrifuged down at 1000 rpm for 5 minutes. The cells are resuspended in 10% FBS DMEM and counted on a cell counter. The cells are seeded at 50,000 cells/well in a volume of 100 μL/well in 10% FBS DMEM in a 96 well flat-bottom plate. The negative control wells receive only 100 μL of 10% FBS DMEM medium without cells. The plate is incubated overnight in a cell culture incubator with 5% CO2 at 37° C.
On day 2, testing compounds are prepared in 10% FBS DMEM medium and serially diluted at 1:3 for 11 test concentrations. Each concentration of the compounds is tested in duplicate. The compound solutions are added at 25 μL/well to the corresponding wells in the cell plate, and 25 μL/well of the vehicle (0.5% DMSO in 10% FBS DMEM) is added to the negative control wells (no cells) and the positive control wells (cells without compounds). The plate is incubated for 1 hour in a cell culture incubator with 5% CO2 at 37° C. After 1 hour of incubation, the medium is removed, 100 μL/well of cell lysis buffer is added into the cell plate, and the plate is shaken for 15 minutes at room temperature. After 15 minutes, the cell lysates are transferred to an ELISA plate (pre-coated with anti-Mek1 anti-body, Cell Signaling #2352), and the plate is incubated with gentle shaking for 2 hours at room temperature. After 2 hours, the contents of the wells are aspirated and the wells are washed 4 times with wash buffer. 100 μL of phospho-Mek1/2 detection antibody (Cell Signaling #9121) is added into each well and the plate is incubated with gentle shaking for 1 hour at room temperature. After 1 hour, the wells are aspirated and washed 4 times with wash buffer. 100 μL of anti-rabbit IgG HRP-linked antibody (Cell Signaling #7074) is added to each well, and the plate is incubated with gentle shaking for 1 hour at room temperature. After 1 hour, the contents of the wells are aspirated and the wells are washed 4 times with wash buffer. 100 μL of TMB substrate solution (Sigma #T0440) is added into each well, and the plate is incubated with gentle shaking at room temperature for 10 to 20 minutes. After color development, 100 μL of stop solution (1N hydrochloric acid) is added to each well to terminate color development. The plate is read at 450 nm on an ELISA plate reader.
On the technique in general: ELISA stands for enzyme-linked immunosorbent assay.
Regarding `CC(C)(C)n1cc(-c2ccnc(NCCC#N)n2)c(-c2cnc3[nH]ccc3c2)n1` [Example B-74, 3-({4-[1-tert-butyl-3-(1H-pyrrolo[2,3-b]pyridin-5-yl)-1H-pyrazol-4-yl]pyrimidin-2-yl}amino)-propanenitrile], the IC50 is 5.33 nM. The figure for `COc1cc(-c2nn(C(F)F)cc2-c2ccnc(NC[C@H](C)O)n2)cnc1N` [Example B-41, (2S)-1-({4-[3-(6-amino-5-methoxypyridin-3-yl)-1-(difluoromethyl)-1H-pyrazol-4-yl]pyrimidin-2-yl}amino)propan-2-ol] is 78.5 nM; for `Nc1nccc(-c2cn(C(F)F)nc2-c2cnc3[nH]cc(Cl)c3c2)n1` [Example B-43, 4-[3-(3-chloro-1H-pyrrolo[2,3-b]pyridin-5-yl)-1-(difluoromethyl)-1H-pyrazol-4-yl]pyrimidin-2-amine] it is 44.1 nM; for `Cc1c[nH]c2ncc(-c3nn(CC(F)F)cc3-c3ccnc(NCCC#N)n3)cc12` [Example B-93, 3-(4-(1-(2,2-difluoroethyl)-3-(3-methyl-1H-pyrrolo[2,3-b]pyridin-5-yl)-1H-pyrazol-4-yl)pyrimidin-2-ylamino)propanenitrile] it is 0.275 nM. The figure for `COCCCn1cc(-c2ccnc(NC[C@H](C)O)n2)c(-c2cnc3[nH]cc(Cl)c3c2)n1` [Example B-110, (2S)-1-({4-[3-(3-chloro-1H-pyrrolo[2,3-b]pyridin-5-yl)-1-(3-methoxypropyl)-1H-pyrazol-4-yl]pyrimidin-2-yl}amino)propan-2-ol] is 144 nM; for `O=S(=O)(C1CC1)N1CCC(Nc2nccc(-c3cn(CC(F)F)nc3-c3cnc4[nH]ccc4c3)n2)CC1` [Example B-27, N-[1-(cyclopropylsulfonyl)piperidin-4-yl]-4-[1-(2,2-difluoroethyl)-3-(1H-pyrrolo[2,3-b]pyridin-5-yl)-1H-pyrazol-4-yl]pyrimidin-2-amine] it is 184 nM.

For the compound `Cc1n[nH]c2ncc(-c3nn(CC(F)F)cc3-c3ccnc(NC4CCOC4)n3)cc12` (centres unmarked) [Example G-4, 4-[1-(2,2-difluoroethyl)-3-(3-methyl-1H-pyrazolo[3,4-b]pyridin-5-yl)-1H-pyrazol-4-yl]-N-(tetrahydrofuran-3-yl)pyrimidin-2-amine], the IC50 amounted to 774 nM. On to `CC(C)n1cc(-c2ccnc(NCCC#N)n2)c(-c2cnc3[nH]ccc3c2)n1` [Example B-50, 3-({4-[1-isopropyl-3-(1H-pyrrolo[2,3-b]pyridin-5-yl)-1H-pyrazol-4-yl]pyrimidin-2-yl}amino)-propanenitrile], for which the IC50 was 7.29 nM. In the case of `Cc1c[nH]c2ncc(-c3nn(C(F)F)cc3-c3ccnc(NCCC#N)n3)cc12` [Example B-44, 3-({4-[1-(difluoromethyl)-3-(3-methyl-1H-pyrrolo[2,3-b]pyridin-5-yl)-1H-pyrazol-4-yl]pyrimidin-2-yl}amino)-propanenitrile] it was 1.37 nM; in that of `C[C@H](O)CNc1nccc(-c2cn(C3CCOCC3)nc2-c2cnc3[nH]cc(Cl)c3c2)n1` [Example B-76, (2S)-1-({4-[3-(3-chloro-1H-pyrrolo[2,3-b]pyridin-5-yl)-1-(tetrahydro-2H-pyran-4-yl)-1H-pyrazol-4-yl]pyrimidin-2-yl}amino)propan-2-ol], 12 nM; in that of `COc1nc(-c2nn(CC(F)F)cc2-c2ccnc(NC[C@H](C)O)n2)cnc1N` [Example I-1, (2S)-1-({4-[3-(5-amino-6-methoxypyrazin-2-yl)-1-(2,2-difluoroethyl)-1H-pyrazol-4-yl]pyrimidin-2-yl}amino)propan-2-ol], 2790 nM.

`COc1cncc(-c2nn(CC(F)F)cc2-c2ccnc(NCCC#N)n2)c1` [Example B-46, 3-({4-[1-(2,2-difluoroethyl)-3-(5-methoxypyridin-3-yl)-1H-pyrazol-4-yl]pyrimidin-2-yl}amino)propanenitrile]: the IC50 turned out to be 16 nM. On to `CC(C)(C)n1cc(-c2ccnc(N)n2)c(-c2cnc3[nH]cc(Cl)c3c2)n1` [Example B-65, 4-[1-tert-butyl-3-(3-chloro-1H-pyrrolo[2,3-b]pyridin-5-yl)-1H-pyrazol-4-yl]pyrimidin-2-amine], for which the IC50 turned out to be 9.04 nM. In the case of `FC(F)CNc1nccc(-c2cn(C3CCNCC3)nc2-c2cnc3[nH]cc(Cl)c3c2)n1` [Example B-77, 4-[3-(3-chloro-1H-pyrrolo[2,3-b]pyridin-5-yl)-1-piperidin-4-yl-1H-pyrazol-4-yl]-N-(2,2-difluoroethyl)pyrimidin-2-amine] it was 30.4 nM; in that of `CC(C)(CO)n1cc(-c2ccnc(N)n2)c(-c2cnc3[nH]cc(Cl)c3c2)n1` [Example E-6, 2-[4-(2-amino-pyrimidin-4-yl)-3-(3-chloro-1H-pyrrolo[2,3-b]pyridin-5-yl)-1H-pyrazol-1-yl]-2-methylpropan-1-ol], 8.98 nM; in that of `CC(C)n1cc(-c2ccnc(N)n2)c(-c2cnc3[nH]cc(Cl)c3c2)n1` [Example B-60, 4-[3-(3-chloro-1H-pyrrolo[2,3-b]pyridin-5-yl)-1-isopropyl-1H-pyrazol-4-yl]pyrimidin-2-amine], 44 nM. In the case of `COc1cc(-c2nn(C(C)C)cc2-c2ccnc(NC3CC3)n2)cnc1N` [Example B-16, 4-[3-(6-amino-5-methoxypyridin-3-yl)-1-isopropyl-1H-pyrazol-4-yl]-N-cyclopropylpyrimidin-2-amine] it was 24 nM; in that of `COc1cc(-c2nn(C3CCOCC3)cc2-c2ccnc(NCCC#N)n2)cnc1N` [Example B-69, 3-({4-[3-(6-amino-5-methoxypyridin-3-yl)-1-(tetrahydro-2H-pyran-4-yl)-1H-pyrazol-4-yl]pyrimidin-2-yl}amino)propanenitrile], 2.98 nM; in that of `COc1cc(-c2nn(C(C)(C)C)cc2-c2ccncn2)cnc1N` [Example F-3, 5-(1-tert-butyl-4-pyrimidin-4-yl-1H-pyrazol-3-yl)-3-methoxypyridin-2-amine], 55.4 nM. In the case of `N#CCCNc1nccc(-c2cn(CC(F)F)nc2-c2cnc3c(ccn3CCC#N)c2)n1` [Example D-15] it was 107 nM; in that of `CC(C)(C#N)n1cc(-c2ccnc(NCCO)n2)c(-c2cnc3[nH]cc(Cl)c3c2)n1` [Example G-5, 2-[3-(3-chloro-1H-pyrollo[2,3-b]pyridin-5-yl)-4-{2-[(2-hydroxyethyl)amino]pyrimidin-4-yl}-1H-pyrazol-1-yl]-2-methylpropanenitrile], 19.9 nM.

Regarding `Cc1cc(-c2nn(CC(F)F)cc2-c2ccnc(NC[C@H](C)O)n2)cnc1N` [Example B-18, (2S)-1-({4-[3-(6-amino-5-methylpyridin-3-yl)-1-(2,2-difluoroethyl)-1H-pyrazol-4-yl]pyrimidin-2-yl}amino)propan-2-ol], the IC50 is 580 nM.

For the compound `Cc1n[nH]c2ncc(-c3nn(CC(F)F)cc3-c3ccnc(NCC(F)F)n3)cc12` [Example G-3, N-(2,2-difluoroethyl)-4-[1-(2,2-difluoroethyl)-3-(3-methyl-1H-pyrazolo[3,4-b]pyridin-5-yl)-1H-pyrazol-4-yl]pyrimidin-2-amine], the IC50 was determined as 22.9 nM. Regarding `C[C@H](O)CNc1nccc(-c2cn(C3COC3)nc2-c2cnc3[nH]cc(Cl)c3c2)n1` [Example B-99, (2S)-1-({4-[3-(3-chloro-1H-pyrrolo[2,3-b]pyridin-5-yl)-1-oxetan-3-yl-1H-pyrazol-4-yl]pyrimidin-2-yl}amino)propan-2-ol], the IC50 stood at 235 nM. On to `CCn1cc(-c2ccnc(NC[C@H](C)O)n2)c(-c2cnc3[nH]cc(Cl)c3c2)n1` [Example B-61, (2S)-1-({4-[3-(3-chloro-1H-pyrrolo[2,3-b]pyridin-5-yl)-1-ethyl-1H-pyrazol-4-yl]pyrimidin-2-yl}amino)propan-2-ol], for which the IC50 was found to be 67.3 nM. As to `C[C@H](O)CNc1nccc(-c2cn(C3CCOC3)nc2-c2cnc3[nH]cc(Cl)c3c2)n1` (stereo partly drawn) [Example G-1, (2S)-1-(4-(3-(3-chloro-1H-pyrrolo[2,3-b]pyridin-5-yl)-1-(tetrahydrofuran-3-yl)-1H-pyrazol-4-yl)pyrimidin-2-ylamino)propan-2-ol], the IC50 turned out to be 16.3 nM.

As usually defined, the IC50 is the midpoint of a concentration-inhibition curve.
